Test results published in patent publication US7880002B2, “Substituted piperazinyl-pyrrolidine compounds useful as chemokine receptor antagonists” (Millennium Pharmaceuticals, Inc., priority 2004, dated 2011).

target: T1, CCR1 (Homo sapiens, UniProt P32246); test: CCR1 inhibition (THP-1 FLIPR assay / THP-1 whole cell radioligand binding assay; the patent does not say which gave the values); type: cell-based; settings: threshold list, less than 100 nm; compounds of Table 1; read-out: inhibitory activity
T1 construct: a monocytic derived cell line that endogenously expresses CCR1; host or cells: THP-1 cells
T1 sequence (P32246 1-355): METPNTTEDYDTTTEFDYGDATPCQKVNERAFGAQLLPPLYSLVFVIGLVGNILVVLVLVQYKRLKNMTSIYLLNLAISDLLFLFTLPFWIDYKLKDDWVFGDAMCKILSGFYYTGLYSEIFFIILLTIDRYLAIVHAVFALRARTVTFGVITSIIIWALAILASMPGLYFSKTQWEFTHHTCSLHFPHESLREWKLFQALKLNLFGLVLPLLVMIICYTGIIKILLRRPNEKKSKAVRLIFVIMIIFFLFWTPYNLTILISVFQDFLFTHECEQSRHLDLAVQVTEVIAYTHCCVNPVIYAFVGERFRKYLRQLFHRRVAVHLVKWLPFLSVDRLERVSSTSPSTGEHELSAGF
Method: The primary screening assay is a FLIPR® (Fluorometric Imaging Plate Reader, available from Molecular Devices Corporation, Sunnyvale, Calif.) assay using THP-1 cells (ATCC, Catalog No. TIB 202), a monocytic derived cell line that endogenously expresses CCR1.
The cells were resuspended at 1×10^6 cells/ml in dye loading media (growth media (RPMI+10% FBS (Fetal Bovine serum)+5.5×10^−5M 2-mercaptoethanol)+10 mM HEPES (N-2-hydroxyethylpiperazine-N′-2-ethane-sulfonic acid)+2.5 mM probenecid+fluo-3 (1:250)). The cells were incubated for 1 hour at 37° C. and then washed in FLIPR wash buffer (100 mL 10× HBSS (Hanks Buffered Saline Solution) (w/Ca++/Mg++)+20 mL 1M HEPES+1 g BSA+10 mL 250 mM probenecid+water (to make 1 L)) and plated at 50,000 cells/well in black/clear 384 well plates. The plates were transferred to FLIPR where the ability of different concentrations of compounds to inhibit RANTES induced calcium flux was assessed. Inhibition of the CCR1 response was reflected by a decrease of the fluorescence signal relative to the positive controls (RANTES alone).
THP-1 Whole Cell Radioligand Binding Assay
The cells were washed with PBS (phosphate buffered saline) and resuspended in binding buffer (10 mM HEPES pH 7.2, 1× HBSS (w/Ca^2+, Mg^2+) 0.5% BSA, 0.02% Na-azide) at 4×10^6 cells/ml (for 200, 000 cells/well). Cells were incubated with 0.1 to 0.2 nM [^125I]-labeled MIP-1α with or without unlabeled competitor (MIP-1α) or various concentrations of compounds for 60 minutes at room temperature. The assay was terminated by vacuum filtration through glass fiber filters (GF/B, Packard) which were presoaked in 0.3% polyethyleneimine. The filters were washed with wash buffer (10 mM HEPES, pH 7.2, 1 mM CaCl2, 5 mM MgCl2 0.5M NaCl), dried and the amount of bound radioactivity was determined by scintillation counting.

IC50, < 100 nM:
O=C(c1ccc(Cl)cc1)N1CCN([C@H]2CN(c3nc(C(F)(F)F)nc4c(F)cccc34)C[C@@H]2O)CC1 (stereo in doubt) [Example 178, 4-[4-(4-chlorobenzoyl)piperazin-1-yl]-1-[8-fluoro-2-(trifluoromethyl)quinazolin-4-yl]pyrrolidin-3-ol]
O=C(c1ccc(Cl)cc1)N1CCN([C@H]2CN(c3ncnc4cc(Cl)ccc34)C[C@@H]2O)CC1 [Example 105, (3S,4S)-4-[4-(4-chlorobenzoyl)piperazin-1-yl]-1-(7-chloroquinazolin-4-yl)pyrrolidin-3-ol]
Nc1ccc2nc(C(F)(F)F)nc(N3C[C@H](O)[C@@H](N4CCN(C(=O)c5ccc(Cl)cc5)CC4)C3)c2c1 (stereo in doubt) [Example 186, 1-[6-amino-2-(trifluoromethyl)quinazolin-4-yl]-4-[4-(4-chlorobenzoyl)piperazin-1-yl]pyrrolidin-3-ol]
O=C(c1ccc(Cl)cc1)N1CCN([C@@H]2CN(c3ncnc4cc(C(F)(F)F)ccc34)C[C@H]2O)CC1 (stereo in doubt) [Example 93, 4-[4-(4-chlorobenzoyl)piperazin-1-yl]-1-[7-(trifluoromethyl)quinazolin-4-yl]pyrrolidin-3-ol]
O[C@H]1CN(c2nc(C(F)(F)F)nc3ccccc23)C[C@@H]1N1CCN(Cc2ccc(Cl)cc2)CC1 (stereo in doubt) [Example 95, 4-[4-(4-chlorobenzyl)piperazin-1-yl]-1-[2-(trifluoromethyl)quinazolin-4-yl]pyrrolidin-3-ol]
O=C(c1ccc(Cl)cc1)N1CCN([C@H]2CN(c3ncnc4cnccc34)C[C@@H]2O)CC1 (racemic) [Example 182, 4-[4-(4-chlorobenzoyl)piperazin-1-yl]-1-pyrido[3,4-d]pyrimidin-4-ylpyrrolidin-3-ol]
O=C(c1ccc(Cl)cc1)N1CCN([C@@H]2CN(c3nc(C(F)(F)F)cc(C(F)(F)F)n3)C[C@H]2O)CC1 (stereo in doubt) [Example 109, 1-[4,6-bis(trifluoromethyl)pyrimidin-2-yl]-4-[4-(4-chlorobenzoyl)piperazin-1-yl]pyrrolidin-3-ol]
O=C(c1ccc(Cl)cc1)N1CCN([C@@H]2CN(c3nccc4ccccc34)C[C@H]2O)CC1 [Example 21, 4-[4-(4-chlorobenzoyl)piperazin-1-yl]-1-isoquinolin-1-ylpyrrolidin-3-ol]
O=C(c1ccc(Cl)cc1)N1CCN([C@H]2CN(c3nc(C(F)(F)F)nc4cccc(Cl)c34)C[C@@H]2O)CC1 (stereo in doubt) [Example 176, 4-[4-(4-chlorobenzoyl)piperazin-1-yl]-1-[5-chloro-2-(trifluoromethyl)quinazolin-4-yl]pyrrolidin-3-ol]
COc1ccc2nc(C(F)(F)F)nc(N3C[C@H](O)[C@@H](N4CCN(C(=O)c5ccc(Cl)cc5)CC4)C3)c2c1 (stereo in doubt) [Example 165, 4-[4-(4-chlorobenzoyl)piperazin-1-yl]-1-[6-methoxy-2-(trifluoromethyl)quinazolin-4-yl]pyrrolidin-3-ol]
COc1cc2c(N3C[C@H](O)[C@@H](N4CCN(C(=O)c5ccc(Cl)cc5)CC4)C3)nc(C(F)(F)F)nc2cn1 (racemic) [Example 183, 4-[4-(4-chlorobenzoyl)piperazin-1-yl]-1-[6-methoxy-2-(trifluoromethyl)pyrido[3,4-d]pyrimidin-4-yl]pyrrolidin-3-ol]
O[C@@H]1CN(c2ncnc3cc(Cl)ccc23)C[C@H]1N1CCN(Cc2ccc(Cl)cc2)CC1 [Example 141, (3R,4R)-4-[4-(4-chlorobenzyl)piperazin-1-yl]-1-(7-chloroquinazolin-4-yl)pyrrolidin-3-ol]
Cc1nc2ccccc2nc1N1C[C@H](O)[C@@H](N2CCN(C(=O)c3ccc(Cl)cc3)CC2)C1 (stereo in doubt) [Example 125, 4-[4-(4-chlorobenzoyl)piperazin-1-yl]-1-(3-methylquinoxalin-2-yl)pyrrolidin-3-ol]
N#Cc1ccc2nc(C(F)(F)F)nc(N3C[C@@H](O)[C@H](N4CCN(C(=O)c5ccc(Cl)cc5)CC4)C3)c2c1 (stereo in doubt) [Example 203, 4-{3-[4-(4-chlorobenzoyl)piperazin-1-yl]-4-hydroxypyrrolidin-1-yl}-2-(trifluoromethyl)quinazoline-6-carbonitrile]
COC(=O)Nc1ccc2nc(C(F)(F)F)nc(N3C[C@H](O)[C@@H](N4CCN(C(=O)c5ccc(Cl)cc5)CC4)C3)c2c1 (stereo in doubt) [Example 190, methyl [4-{3-[4-(4-chlorobenzoyl)piperazin-1-yl]-4-hydroxypyrrolidin-1-yl}-2-(trifluoromethyl)quinazolin-6-yl]carbamate]
O=C(c1ccc(Cl)cc1)N1CCN([C@H]2CN(c3ncnc4cc(C(F)(F)F)ccc34)C[C@@H]2O)CC1 (stereo in doubt) [Example 132, 4-[4-(4-chlorobenzoyl)piperazin-1-yl]-1-[7-(trifluoromethyl)quinazolin-4-yl]pyrrolidin-3-ol]
COC(=O)c1ccc2nc(C(F)(F)F)nc(N3C[C@@H](O)[C@H](N4CCN(C(=O)c5ccc(Cl)cc5)CC4)C3)c2c1 (stereo in doubt) [Example 180, methyl 4-{3-[4-(4-chlorobenzoyl)piperazin-1-yl]-4-hydroxypyrrolidin-1-yl}-2-(trifluoromethyl)quinazoline-6-carboxylate]
O=C(c1ccc(Cl)cc1)N1CCN([C@H]2CN(c3nc(C(F)(F)F)nc4ccc([N+](=O)[O-])cc34)C[C@@H]2O)CC1 (stereo in doubt) [Example 188, 4-[4-(4-chlorobenzoyl)piperazin-1-yl]-1-[6-nitro-2-(trifluoromethyl)quinazolin-4-yl]pyrrolidin-3-ol]
O=C(c1ccc(Cl)cc1)N1CCN([C@@H]2CN(c3ccnc4cc(C(F)(F)F)ccc34)C[C@H]2O)CC1 [Example 12, 4-[4-(4-chlorobenzoyl)piperazin-1-yl]-1-[7-(trifluoromethyl)quinolin-4-yl]pyrrolidin-3-ol]
O=C(c1ccc(Cl)cc1)N1CCN([C@H]2CN(c3nc(C(F)(F)F)nc4cc(Cl)ccc34)C[C@@H]2O)CC1 (stereo in doubt) [Example 201, 4-[4-(4-chlorobenzoyl)piperazin-1-yl]-1-[7-chloro-2-(trifluoromethyl)quinazolin-4-yl]pyrrolidin-3-ol]
O=C(c1ccc(Cl)cc1)N1CCN([C@@H]2CN(c3nc(C(F)(F)F)nc4ccc(-c5nn[nH]n5)cc34)C[C@H]2O)CC1 (stereo in doubt) [Example 204, 4-[4-(4-chlorobenzoyl)piperazin-1-yl]-1-[6-(2H-tetrazol-5-yl)-2-(trifluoromethyl)quinazolin-4-yl]pyrrolidin-3-ol]
Cc1nc(C(F)(F)F)nc(N2C[C@@H](O)[C@H](N3CCN(C(=O)c4ccc(Cl)cc4)CC3)C2)c1C (stereo in doubt) [Example 119, 4-[4-(4-chlorobenzoyl)piperazin-1-yl]-1-[5,6-dimethyl-2-(trifluoromethyl)pyrimidin-4-yl]pyrrolidin-3-ol]
Cc1cc(N2C[C@@H](O)[C@H](N3CCN(C(=O)c4ccc(Cl)cc4)CC3)C2)nc(C(F)(F)F)n1 (stereo in doubt) [Example 146, 4-[4-(4-chlorobenzoyl)piperazin-1-yl]-1-[6-methyl-2-(trifluoromethyl)pyrimidin-4-yl]pyrrolidin-3-ol]
CNC(=O)c1ccc2nc(C(F)(F)F)nc(N3C[C@@H](O)[C@H](N4CCN(C(=O)c5ccc(Cl)cc5)CC4)C3)c2c1 (stereo in doubt) [Example 198, 4-{3-[4-(4-chlorobenzoyl)piperazin-1-yl]-4-hydroxypyrrolidin-1-yl}-N-methyl-2-(trifluoromethyl)quinazoline-6-carboxamide]
